The results in this text go back to US11912686B2 (Gilead Sciences, Inc., priority 2020, dated 2024).

human LPAR1, sequence (Q92633 whole entry): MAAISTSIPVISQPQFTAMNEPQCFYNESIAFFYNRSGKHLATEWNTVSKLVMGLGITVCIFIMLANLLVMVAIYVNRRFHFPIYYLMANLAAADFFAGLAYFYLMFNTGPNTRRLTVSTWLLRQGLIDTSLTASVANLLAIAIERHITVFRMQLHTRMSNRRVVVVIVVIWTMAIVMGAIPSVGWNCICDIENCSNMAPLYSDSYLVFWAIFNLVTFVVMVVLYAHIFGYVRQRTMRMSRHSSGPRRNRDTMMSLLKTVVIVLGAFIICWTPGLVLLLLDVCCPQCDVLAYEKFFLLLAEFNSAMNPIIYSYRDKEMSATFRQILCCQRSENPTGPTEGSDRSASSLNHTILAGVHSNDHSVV

The assay has as its target human LPAR1 (Homo sapiens (Human), UniProt Q92633). As to the kind of experiment: LPAR1 intracellular calcium mobilization assay (antagonist mode, FLIPR). Type of assay: cell-based. Conditions: CHO-K1 EDG2 cells expressing human LPAR1, LPA 18:2 at EC80 (100 nM), test compound 0.5 nM to 10 μM.
By EC50 is commonly meant the concentration giving half of the maximal effect. In the case of `C[C@@H](OC(=O)Nc1c(-c2ccc(NC(=O)[C@@H]3C[C@H]3Cl)cn2)nnn1C)c1cc(F)cnc1F` [Compound 218, (R)-1-(2,5-difluoropyridin-3-yl)ethyl (4 (5-((1S,2R)-2-chlorocyclopropane-1-carboxamido)pyridin-2-yl)-1-methyl-1H-1,2,3-triazol-5-yl)carbamate], the EC50 worked out at 24 nM.

`C[C@@H](OC(=O)Nc1c(-c2ccc(NC(=O)c3cncc(C(F)F)c3)cn2)nnn1C)c1cc(F)cnc1F` [Compound 219, (R)-1-(2,5-difluoropyridin-3-yl)ethyl (4-(5-(5-(difluoromethyl)nicotinamido)pyridin-2-yl)-1-methyl-1H-1,2,3-triazol-5-yl)carbamate]: the EC50 amounted to 37.7 nM.

In the case of `C[C@@H](OC(=O)Nc1c(-c2ccc(NC(=O)c3ccc(F)nc3)cn2)nnn1C)c1cc(F)cnc1F` [Compound 220, (R)-1-(2,5-difluoropyridin-3-yl)ethyl (4-(5-(6-fluoronicotinamido)pyridin-2-yl)-1-methyl-1H-1,2,3-triazol-5-yl)carbamate], the EC50 came out at 158 nM.

Consider `Cc1ccc(C(=O)Nc2ccc(-c3nnn(C)c3NC(=O)O[C@H](C)c3cc(F)cnc3F)nc2)cn1` [Compound 221, (R)-1-(2,5-difluoropyridin-3-yl)ethyl (1-methyl-4-(5-(6-methylnicotinamido)pyridin-2-yl)-1H-1,2,3-triazol-5-yl)carbamate], for which the EC50 was 374 nM.

On to `C[C@@H](OC(=O)Nc1c(-c2ccc(NC(=O)c3ccc(C(F)F)nc3)cn2)nnn1C)c1cc(F)cnc1F` [Compound 222, (R)-1-(2,5-difluoropyridin-3-yl)ethyl (4-(5-(6-(difluoromethyl)nicotinamido)pyridin-2-yl)-1-methyl-1H-1,2,3-triazol-5-yl)carbamate], for which the EC50 was 41.7 nM.

Turning to `COc1cc(C(=O)Nc2ccc(-c3nnn(C)c3NC(=O)O[C@H](C)c3cc(F)cnc3F)nc2)ccn1` [Compound 223, (R)-1-(2,5-difluoropyridin-3-yl)ethyl (4-(5-(2-methoxyisonicotinamido)pyridin-2-yl)-1-methyl-1H-1,2,3-triazol-5-yl)carbamate], the EC50 is 118 nM.

Take `C[C@@H](OC(=O)Nc1c(-c2ccc(NC(=O)c3ccnc(C(F)F)c3)cn2)nnn1C)c1cc(F)cnc1F` [Compound 224, (R)-1-(2,5-difluoropyridin-3-yl)ethyl (4-(5-(2-(difluoromethyl)isonicotinamido)pyridin-2-yl)-1-methyl-1H-1,2,3-triazol-5-yl)carbamate]: the EC50 is 40.2 nM.

With `C[C@@H](OC(=O)Nc1c(-c2ccc(NC(=O)C3(C)CC(F)(F)C3)cn2)nnn1C)c1cc(F)cnc1F` [Compound 226, (R)-1-(2,5-difluoropyridin-3-yl)ethyl (4-(5-(3,3-difluoro-1-methylcyclobutane-1-carboxamido)pyridin-2-yl)-1-methyl-1H-1,2,3-triazol-5-yl)carbamate], the EC50 amounted to 184 nM.

For `Cc1cnoc1C(=O)Nc1ccc(-c2nnn(C)c2NC(=O)O[C@H](C)c2cc(F)cnc2F)nc1` [Compound 227, (R)-1-(2,5-difluoropyridin-3-yl)ethyl (1-methyl-4-(5-(4-methylisoxazole-5-carboxamido)pyridin-2-yl)-1H-1,2,3-triazol-5-yl)carbamate], the concentration giving a half-maximal response (EC50) is 206 nM.

Turning to `C[C@@H](OC(=O)Nc1c(-c2ccc(NC(=O)C3(C)CS(=O)(=O)C3)cn2)nnn1C)c1cc(F)cnc1F` [Compound 228, (R)-1-(2,5-difluoropyridin-3-yl)ethyl (1-methyl-4-(5-(3-methyl-1,1-dioxidothietane-3-carboxamido)pyridin-2-yl)-1H-1,2,3-triazol-5-yl)carbamate], the EC50 came out at 403 nM.

Consider `Cc1cc(C(=O)Nc2ccc(-c3nnn(C)c3NC(=O)O[C@H](C)c3cc(F)cnc3F)nc2)cnn1` [Compound 231, (R)-1-(2,5-difluoropyridin-3-yl)ethyl (1-methyl-4-(5-(6-methylpyridazine-4-carboxamido)pyridin-2-yl)-1H-1,2,3-triazol-5-yl)carbamate], for which the EC50 was determined as 412 nM.

For `C[C@@H](OC(=O)Nc1c(-c2ccc(NC(=O)c3ccnc(N)c3)cn2)nnn1C)c1cc(F)cnc1F` [Compound 232, (R)-1-(2,5-difluoropyridin-3-yl)ethyl (4-(5-(2-aminoisonicotinamido)pyridin-2-yl)-1-methyl-1H-1,2,3-triazol-5-yl)carbamate], the EC50 was 1110 nM.

As for `Cc1ncc(C(=O)Nc2ccc(-c3nnn(C)c3NC(=O)O[C@H](C)c3cc(F)cnc3F)nc2)cn1` [Compound 234, (R)-1-(2,5-difluoropyridin-3-yl)ethyl (1-methyl-4-(5-(2-methylpyrimidine-5-carboxamido)pyridin-2-yl)-1H-1,2,3-triazol-5-yl)carbamate], the EC50 came out at 136 nM.

Consider `C[C@@H](OC(=O)Nc1c(-c2ccc(NC(=O)c3cnc(C#N)nc3)cn2)nnn1C)c1cc(F)cnc1F` [Compound 235, (R)-1-(2,5-difluoropyridin-3-yl)ethyl (4-(5-(2-cyanopyrimidine-5-carboxamido)pyridin-2-yl)-1-methyl-1H-1,2,3-triazol-5-yl)carbamate], for which the EC50 turned out to be 26.5 nM.

As to `C[C@@H](OC(=O)Nc1c(-c2ccc(NC(=O)c3ccc(=O)n(C)c3)cn2)nnn1C)c1cc(F)cnc1F` [Compound 236, (R)-1-(2,5-difluoropyridin-3-yl)ethyl (1-methyl-4-(5-(1-methyl-6-oxo-1,6-dihydropyridine-3-carboxamido)pyridin-2-yl)-1H-1,2,3-triazol-5-yl)carbamate], the 50% effective concentration (EC50) was found to be 1660 nM.

With `Cc1nonc1C(=O)Nc1ccc(-c2nnn(C)c2NC(=O)O[C@H](C)c2cc(F)cnc2F)nc1` [Compound 239, (R)-1-(2,5-difluoropyridin-3-yl)ethyl (1-methyl-4-(5-(4-methyl-1,2,5-oxadiazole-3-carboxamido)pyridin-2-yl)-1H-1,2,3-triazol-5-yl)carbamate], the EC50 worked out at 62.3 nM.

For `C[C@@H](OC(=O)Nc1c(-c2ccc(NC(=O)c3cc(F)cnc3F)cn2)nnn1C)c1cc(F)cnc1F` [Compound 241, (R)-1-(2,5-difluoropyridin-3-yl)ethyl (4-(5-(2,5-difluoronicotinamido)pyridin-2-yl)-1-methyl-1H-1,2,3-triazol-5-yl)carbamate], the EC50 was 111 nM.

Take `C[C@@H](OC(=O)Nc1c(-c2ccc(NC(=O)c3ccc(C(F)(F)F)nc3)cn2)nnn1C)c1cc(F)cnc1F` [Compound 242, (R)-1-(2,5-difluoropyridin-3-yl)ethyl (1-methyl-4-(5-(6-(trifluoromethyl)nicotinamido)pyridin-2-yl)-1H-1,2,3-triazol-5-yl)carbamate]: the EC50 amounted to 63.3 nM.

`C[C@@H](OC(=O)Nc1c(-c2ccc(NC(=O)c3ccnc(F)c3F)cn2)nnn1C)c1cc(F)cnc1F` [Compound 243, (R)-1-(2,5-difluoropyridin-3-yl)ethyl (4-(5-(2,3-difluoroisonicotinamido)pyridin-2-yl)-1-methyl-1H-1,2,3-triazol-5-yl)carbamate]: the EC50 was 71.9 nM.

`C[C@@H](OC(=O)Nc1c(-c2ccc(NC(=O)c3cc(F)nc(F)c3)cn2)nnn1C)c1cc(F)cnc1F` [Compound 244, (R)-1-(2,5-difluoropyridin-3-yl)ethyl (4-(5-(2,6-difluoroisonicotinamido)pyridin-2-yl)-1-methyl-1H-1,2,3-triazol-5-yl)carbamate]: the EC50 was found to be 131 nM.

With `C[C@@H](OC(=O)Nc1c(-c2ccc(NC(=O)[C@]3(C#N)C[C@H]3C(F)F)cn2)nnn1C)c1cc(F)cnc1F` [Compound 245, (R)-1-(2,5-difluoropyridin-3-yl)ethyl (4-(5-((1R,2R)-1-cyano-2-(difluoromethyl)cyclopropane-1-carboxamido)pyridin-2-yl)-1-methyl-1H-1,2,3-triazol-5-yl)carbamate], the EC50 is 11.7 nM.

As for `C[C@@H](OC(=O)Nc1c(-c2ccc(NC(=O)[C@@]3(C#N)C[C@@H]3C(F)F)cn2)nnn1C)c1cc(F)cnc1F` [Compound 246, (R)-1-(2,5-difluoropyridin-3-yl)ethyl (4-(5-((1S,2S)-1-cyano-2-(difluoromethyl)cyclopropane-1-carboxamido)pyridin-2-yl)-1-methyl-1H-1,2,3-triazol-5-yl)carbamate], the EC50 turned out to be 103 nM.

For `Cc1nccc(C(=O)Nc2ccc(-c3nnn(C)c3NC(=O)O[C@H](C)c3cc(F)cnc3F)nc2)n1` [Compound 249, (R)-1-(2,5-difluoropyridin-3-yl)ethyl (1-methyl-4-(5-(2-methylpyrimidine-4-carboxamido)pyridin-2-yl)-1H-1,2,3-triazol-5-yl)carbamate], the EC50 is 537 nM.

As for `C[C@@H](OC(=O)Nc1c(-c2ccc(NC(=O)c3ccc(Cl)nn3)cn2)nnn1C)c1cc(F)cnc1F` [Compound 250, (R)-1-(2,5-difluoropyridin-3-yl)ethyl (4-(5-(6-chloropyridazine-3-carboxamido)pyridin-2-yl)-1-methyl-1H-1,2,3-triazol-5-yl)carbamate], the EC50 came to 276 nM.

For the compound `C[C@@H](OC(=O)Nc1c(-c2ccc(NC(=O)c3cnc(C(F)(F)F)nc3)cn2)nnn1C)c1cc(F)cnc1F` [Compound 251, (R)-1-(2,5-difluoropyridin-3-yl)ethyl (1-methyl-4-(5-(2-(trifluoromethyl)pyrimidine-5-carboxamido)pyridin-2-yl)-1H-1,2,3-triazol-5-yl)carbamate], the half-maximal effective concentration (EC50) was found to be 38.5 nM.

In the case of `C[C@@H](OC(=O)Nc1c(-c2ccc(NC(=O)c3cnc(C(F)F)nc3)cn2)nnn1C)c1cc(F)cnc1F` [Compound 252, (R)-1-(2,5-difluoropyridin-3-yl)ethyl (4-(5-(2-(difluoromethyl)pyrimidine-5-carboxamido)pyridin-2-yl)-1-methyl-1H-1,2,3-triazol-5-yl)carbamate], the EC50 is 73.5 nM.

On to `C[C@@H](OC(=O)Nc1c(-c2ccc(NC(=O)c3cnccc3Cl)cn2)nnn1C)c1cc(F)cnc1F` [Compound 253, (R)-1-(2,5-difluoropyridin-3-yl)ethyl (4-(5-(4-chloronicotinamido)pyridin-2-yl)-1-methyl-1H-1,2,3-triazol-5-yl)carbamate], for which the EC50 worked out at 551 nM.
